# Values quoted from earlier work as cited in patent publication US6462026B1, “Bicyclic leucomycins” (Enanta Pharmaceuticals, Inc., priority 2001, dated 2002).
# Read-outs that look alike come from different tables or passages of the source.
# How the values were obtained:
# [1] = parent compound rokitamycin
# [2] = system: Gram-positive bacteria
# [3] = system: Mycoplasma spp.
# [4] = metabolites isolated from urine and plasma of adults given oral josamycin
# [5] = system: Gram-negative bacteria; details: relative to leucomycin A5, josamycin and midecamycin
# [6] = monkeys; compared with other 3″-O-acyl derivatives of leucomycin A5
# [7] = dogs; compared with other 3″-O-acyl derivatives of leucomycin A5
compound,measurement,setting,value
4″-debutyryl leucomycin A5 [Lecomycin V],in vitro potency relative to the parent compound,[1],one-tenth
COC1C(O)CC(=O)OC(C)CC=CC=CC(=O)C(C)CC(CC=O)C1OC1OC(C)C(OC2CC(C)(O)C(OC(=O)CC(C)C)C(C)O2)C(N(C)C)C1O (centres unmarked) [Niddamycin],antibacterial activity in vitro,[2],good antibacterial activity
same,antibacterial activity in vitro,[3],good antibacterial activity
β-hydroxyisovaleryl josamycin,antimicrobial activity,[4],poor antimicrobial activity
5-hydroxyjosamycin,antimicrobial activity,[4],poor antimicrobial activity
demycarosyl josamycin,antimicrobial activity,[4],inactive
CCC(=O)O[C@H]1[C@H](C)O[C@@H](O[C@H]2[C@H](N(C)C)[C@@H](O)[C@H](O[C@H]3[C@@H](CC=O)C[C@@H](C)[C@@H](O)/C=C/C=C/C[C@@H](C)OC(=O)C[C@@H](O)[C@@H]3OC)O[C@@H]2C)C[C@@]1(C)O [Leucomycin A7],in vitro potency relative to the parent compound,[1],one-half
COC1C(OC(C)=O)CC(=O)OC(C)CC=CC=CC(O)C(C)CC(CC=O)C1OC1OC(C)C(OC2CC(C)(O)C(O)C(C)O2)C(N(C)C)C1O (centres unmarked) [desisovaleryl josamycin],antimicrobial activity,[4],inactive
"CCCC(=O)O[C@H]1[C@H](C)O[C@@H](O[C@H]2[C@H](N(C)C)[C@@H](O)[C@H](O[C@H]3[C@@H](CC=O)C[C@@H](C)[C@@H](O)/C=C/C=C/C[C@@H](C)OC(=O)C[C@@H](O)[C@@H]3OC)O[C@@H]2C)C[C@@]1(C)OC(=O)CC [rokitamycin, 3″-O-propionyl leucomycin A5]",in vitro activity against Gram-negative bacteria,[5],twice as high
same,serum levels,[6],highest serum levels
same,serum levels,[7],highest serum levels
